Reference: patent US11261232B2, “TNFRSF14 / HVEM proteins and methods of use thereof” (MEMORIAL SLOAN KETTERING CANCER CENTER, priority 2015, dated 2022)

System: purified human TFH cells
Experiment: TFH stimulation: viability and cytokine expression
Format: cell-based
Source text: FIG. 6A-I. Increased TFH cell recruitment supports to HVEM deficient lymphoma B cells. FIG. 6A, FACS identification and sorting of human GC derived TFH cells based on the markers CD3pos, CD4pos, CD25neg, PD1hi, CXCRShi, left: isotypic control; right; staining with anti-BTLA antibody; FIG. 6B and FIG. 6C, FACS measurement (FIG. 6B) and quantification (FIG. 6C) of intra-tumoral TFH cells in control and HVEM deficient murine lymphomas; FIG. 6D and FIG. 6E, qRT-PCR measurement of IL21 (FIG. 6D), and IL4 (FIG. 6E) in sorted intra-tumoral T cells (N=?); FIG. 6F, qRT-PCR measurement of the LTa, LTb, and TNFa mRNA expression in T cells isolated from the spleens of vector and shHVEM mice * p<?; G-I, qRT-PCR measurement of TNFa (FIG. 6G), LTa (FIG. 6H), and LTb (FIG. 61) in cell sorted TFH (n=4) cultured with anti-CD3/anti-CD28 Mabs in presence or not of soluble HVEM (solHVEM, 10 μg/ml), each symbol represents an independent TFH sample.
FIG. 13A-E. Analysis of TFH cell function in HVEM deficient lymphomas. FIG. 13A and FIG. 13B, qRT-PCR measurement of the receptors for IL21 (IL-21ra; A), and IL4 (IL4ra; B) in purified lymphoma B cells; FIG. 13C, Viability of purified murine TFH cells (samples: n=4) that were cultured for 3 days with or without (UN) stimulation by anti-CD3/anti-CD28 in the presence or absence of the soluble HVEM ectodomain (solHVEM: 10 μg/ml); FIG. 13D, Cell-Sorted GC-TFH cultured with anti-CD3/anti-CD28 Mabs in presence or not of solHVEM; production of CXCL13(FIG. 13E) and IL-21(FIG. 13F) evaluated by ELISA.
The stroma-derived cytokine CXCL13 is the main chemo-attractant for CXCRSpos follicular T helper cells (TFH) (Crotty, 2014). […] This increase in TFH cell numbers is associated with an elevated expression of the TFH derived cytokines. […] Further, it was observed that the increased production of IL21 and IL4 by TFH cells was matched with an elevated expression of the IL21 and IL4 receptors on FACS purified lymphoma B cells from HVEM deficient lymphomas (p<0.01) (FIGS. 13A and 13B). Human TFH cells are characterized by high-level expression of the BTLA receptor (FIG. 13C) and experiments were performed to test whether HVEM directly affected these tumor infiltrating T cells. […]
Purified TFH were cultured in IMDM 10% FCS with or without anti-CD3 (0.6 μg/mL) and anti-CD28 (0.6 m/mL, Pelicluster Sanquin) MAbs in the presence or not of solHVEM (10 μg/mL). After 3 days of culture, the number of viable TFH was evaluated by flow cytometry using count beads (Flow Count, Beckman Coulter) and Topro-3 staining (Invitrogen). CXCL13 was quantified in culture supernatants by ELISA (R&D Systems) according to manufacturer's instructions.

[1] = with or without anti-CD3/anti-CD28, solHVEM 10 μg/mL, 3 days

## solHVEM: Leu39-Val202 soluble HVEM ectodomain polypeptide of SEQ ID NO. 8
solHVEM 10 μg/ml
  expression of LTa in TFH cells: reductions
  expression of LTb in TFH cells: reductions
[1]
  TFH cell numbers: did not affect
  TFH cell viability: did not affect
